# Data from patent publication US20260226020A1, “Nav 1.7 AND/OR Nav 1.8 BLOCKING HYDRAZIDES, PROCESSES FOR THE PREPARATION THEREOF, COMPOSITIONS, USES, METHODS OF TREATMENT USING SAME AND KITS” (Eurofarma Laboratórios S.A., priority 2023, published 2026).
# What was measured:
# [1] = target: T1, human sodium channels Nav 1.7 (Homo sapiens, UniProt Q15858); test: Automated whole-cell voltage-clamp (ScreenPatch 384P) sodium current block in CHO cells expressing Nav 1.7; format: cell-based; conditions: CHO cells stably expressing human Nav 1.7; whole cell patch clamp, inactivation step -40 mV 8 s, test step 0 mV (TP1A), room temperature; mean where tested in two or more assays; read-out: Nav1.7 IC50
# T1 construct: expressed in transfected cells
# Procedure: (§1) Biological assays were performed on Chinese hamster ovary (CHO) cells that express human sodium channels Nav 1.8 or Nav 1.7 in a stable manner.
# (§2) The experimental protocol voltage-clamp using the whole cell configuration was established on the automated ScreenPatch© 384P platform (SP384PE, Nanion Technologies, Livingston, NJ) and the results were recorded with a Nanion 384-well Patch Clamp chip (NPC) (Nanion Technologies, Livingston, NJ).
# (§3) Formula I compounds were diluted in eight concentrations in the extracellular solution composed of saline saline solution, buffered with HEPES (mM): NaCl, 137; KCl, 4; CaCl2, 3.8; MgCl2, 1; HEPES, 10; Glucose, 10; pH 7.4. The […], 50; CsF, 90; MgCl2, 5; EGTA, 5; HEPES, 10; pH 7.2. The duration of exposure of each compound with cells expressing Nav 1.7 or Nav 1.8 was at least five minutes, and the assays were performed at room temperature.
# (§4) The measurements of the sodium currents of Nav 1.8 and Nav 1.7 were obtained using the voltage protocol described below.
# (§5) A holding voltage of −100 mV was established followed by an inactivation voltage step at −40 mV for 8 seconds, followed by a step of −100 mV for 20 ms, followed by a 20 ms step for 10 mV for Nav 1.8 or 0 mV for Nav 1.7 (TP1A) before returning to the holding voltage of −100 mV.
# (§6) The protocol was repeated at a frequency of 0.05 Hz and the amplitude of the current was quantified throughout the recording of the TP1A phase. The variation in the amplitude of the peak current was evaluated according to the formula described below, after exposing the cells expressing the channels to each concentration of the different compounds:
# (§7) wherein ITP1A,basal and ITP1A,molecule represent the peaks of sodium current input into TP1A before exposure to the compound and in the presence of the compound, respectively.
# (§8) The decrease in the amplitude of the peak current, after the exposure of the cells to the compounds, was used to calculate the percentage of relative blockage of the channels in relation to the positive control according to the formula below: […]
# (§9) wherein % V and % CP represent the means of the values of current inhibition with a vehicle (DMSO) and positive controls, respectively. The sodium currents of the positive control were considered as 100%.
# (§10) wherein [Test] represents the concentration of the molecule evaluated, CI50 is the concentration of the compound that generates half of the maximum inhibition, N is the Hill coefficient, and % Block′ is the percentage of sodium channel current (Nav 1.8 and Nav 1.7) blocked at each concentration of the molecule evaluated. Data were obtained by nonlinear regression (nonlinear least squares) with XLfit for Excel (Microsoft, Redmond, WA).
# (§11) The compounds were tested in at least one assay to obtain the value of CI50. For compounds that were tested in two or more assays, the results are described as the means of the CI50 values.
# [2] = target: T2, human sodium channels Nav 1.8 (Homo sapiens, UniProt Q9Y5Y9); test: Automated whole-cell voltage-clamp (ScreenPatch 384P) sodium current block in CHO cells expressing Nav 1.8; format: cell-based; conditions: CHO cells stably expressing human Nav 1.8; whole cell patch clamp, inactivation step -40 mV 8 s, test step 10 mV (TP1A), room temperature; mean where tested in two or more assays; read-out: Nav1.8 IC50
# T2 construct: expressed in transfected cells
# Procedure: as §1, §2, §3, §4, §5, §6, §7, §8, §9, §10, §11
# T2 sequence (Q9Y5Y9 whole entry): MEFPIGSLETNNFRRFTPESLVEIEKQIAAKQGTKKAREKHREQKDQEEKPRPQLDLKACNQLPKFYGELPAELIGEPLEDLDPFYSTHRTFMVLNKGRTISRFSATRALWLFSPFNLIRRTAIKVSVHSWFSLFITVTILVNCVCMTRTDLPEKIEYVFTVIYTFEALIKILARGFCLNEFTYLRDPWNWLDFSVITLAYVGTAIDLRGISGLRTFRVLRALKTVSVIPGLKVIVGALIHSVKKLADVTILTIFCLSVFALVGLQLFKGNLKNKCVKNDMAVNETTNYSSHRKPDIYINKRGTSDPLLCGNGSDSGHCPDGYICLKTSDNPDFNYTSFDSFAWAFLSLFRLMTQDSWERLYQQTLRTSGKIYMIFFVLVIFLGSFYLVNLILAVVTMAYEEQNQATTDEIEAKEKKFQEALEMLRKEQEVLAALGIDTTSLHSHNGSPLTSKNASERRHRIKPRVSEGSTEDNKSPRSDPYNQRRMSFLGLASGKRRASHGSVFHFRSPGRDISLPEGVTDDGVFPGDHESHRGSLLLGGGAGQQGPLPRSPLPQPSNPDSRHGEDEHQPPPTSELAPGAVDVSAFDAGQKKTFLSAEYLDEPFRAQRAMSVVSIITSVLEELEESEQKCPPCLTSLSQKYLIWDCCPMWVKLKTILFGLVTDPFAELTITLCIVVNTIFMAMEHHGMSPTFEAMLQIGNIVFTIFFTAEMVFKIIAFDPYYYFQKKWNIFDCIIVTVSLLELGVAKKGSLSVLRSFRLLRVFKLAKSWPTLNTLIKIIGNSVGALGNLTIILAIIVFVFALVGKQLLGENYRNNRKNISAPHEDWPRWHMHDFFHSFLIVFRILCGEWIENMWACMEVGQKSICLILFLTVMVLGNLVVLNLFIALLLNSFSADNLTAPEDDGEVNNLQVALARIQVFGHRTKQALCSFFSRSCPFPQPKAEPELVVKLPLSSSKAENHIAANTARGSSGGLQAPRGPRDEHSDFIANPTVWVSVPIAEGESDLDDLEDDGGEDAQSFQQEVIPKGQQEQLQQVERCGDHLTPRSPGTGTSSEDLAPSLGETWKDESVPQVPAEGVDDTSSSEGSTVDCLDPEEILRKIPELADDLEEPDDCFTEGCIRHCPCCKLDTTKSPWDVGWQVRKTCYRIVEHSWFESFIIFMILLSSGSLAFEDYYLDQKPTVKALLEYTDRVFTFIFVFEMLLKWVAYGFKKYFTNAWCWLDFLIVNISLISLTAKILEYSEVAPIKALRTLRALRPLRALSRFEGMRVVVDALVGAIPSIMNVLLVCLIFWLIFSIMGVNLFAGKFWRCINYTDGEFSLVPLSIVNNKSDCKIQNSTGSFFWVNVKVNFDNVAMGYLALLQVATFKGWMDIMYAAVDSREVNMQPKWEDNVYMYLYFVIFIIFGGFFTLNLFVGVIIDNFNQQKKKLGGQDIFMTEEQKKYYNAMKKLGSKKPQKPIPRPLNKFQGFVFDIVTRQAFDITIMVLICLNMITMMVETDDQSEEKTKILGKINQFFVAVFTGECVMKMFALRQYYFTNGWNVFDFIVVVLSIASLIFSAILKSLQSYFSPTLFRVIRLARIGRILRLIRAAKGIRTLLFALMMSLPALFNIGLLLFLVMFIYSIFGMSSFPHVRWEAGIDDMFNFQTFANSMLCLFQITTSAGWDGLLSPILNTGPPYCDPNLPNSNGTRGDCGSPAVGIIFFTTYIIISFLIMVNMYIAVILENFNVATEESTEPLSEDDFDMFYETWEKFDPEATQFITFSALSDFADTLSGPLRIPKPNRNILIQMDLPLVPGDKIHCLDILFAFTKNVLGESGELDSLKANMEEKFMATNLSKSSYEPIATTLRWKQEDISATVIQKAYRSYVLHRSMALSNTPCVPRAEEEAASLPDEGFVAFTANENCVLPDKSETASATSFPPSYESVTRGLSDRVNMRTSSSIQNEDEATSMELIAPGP
# T1 sequence (Q15858 whole entry): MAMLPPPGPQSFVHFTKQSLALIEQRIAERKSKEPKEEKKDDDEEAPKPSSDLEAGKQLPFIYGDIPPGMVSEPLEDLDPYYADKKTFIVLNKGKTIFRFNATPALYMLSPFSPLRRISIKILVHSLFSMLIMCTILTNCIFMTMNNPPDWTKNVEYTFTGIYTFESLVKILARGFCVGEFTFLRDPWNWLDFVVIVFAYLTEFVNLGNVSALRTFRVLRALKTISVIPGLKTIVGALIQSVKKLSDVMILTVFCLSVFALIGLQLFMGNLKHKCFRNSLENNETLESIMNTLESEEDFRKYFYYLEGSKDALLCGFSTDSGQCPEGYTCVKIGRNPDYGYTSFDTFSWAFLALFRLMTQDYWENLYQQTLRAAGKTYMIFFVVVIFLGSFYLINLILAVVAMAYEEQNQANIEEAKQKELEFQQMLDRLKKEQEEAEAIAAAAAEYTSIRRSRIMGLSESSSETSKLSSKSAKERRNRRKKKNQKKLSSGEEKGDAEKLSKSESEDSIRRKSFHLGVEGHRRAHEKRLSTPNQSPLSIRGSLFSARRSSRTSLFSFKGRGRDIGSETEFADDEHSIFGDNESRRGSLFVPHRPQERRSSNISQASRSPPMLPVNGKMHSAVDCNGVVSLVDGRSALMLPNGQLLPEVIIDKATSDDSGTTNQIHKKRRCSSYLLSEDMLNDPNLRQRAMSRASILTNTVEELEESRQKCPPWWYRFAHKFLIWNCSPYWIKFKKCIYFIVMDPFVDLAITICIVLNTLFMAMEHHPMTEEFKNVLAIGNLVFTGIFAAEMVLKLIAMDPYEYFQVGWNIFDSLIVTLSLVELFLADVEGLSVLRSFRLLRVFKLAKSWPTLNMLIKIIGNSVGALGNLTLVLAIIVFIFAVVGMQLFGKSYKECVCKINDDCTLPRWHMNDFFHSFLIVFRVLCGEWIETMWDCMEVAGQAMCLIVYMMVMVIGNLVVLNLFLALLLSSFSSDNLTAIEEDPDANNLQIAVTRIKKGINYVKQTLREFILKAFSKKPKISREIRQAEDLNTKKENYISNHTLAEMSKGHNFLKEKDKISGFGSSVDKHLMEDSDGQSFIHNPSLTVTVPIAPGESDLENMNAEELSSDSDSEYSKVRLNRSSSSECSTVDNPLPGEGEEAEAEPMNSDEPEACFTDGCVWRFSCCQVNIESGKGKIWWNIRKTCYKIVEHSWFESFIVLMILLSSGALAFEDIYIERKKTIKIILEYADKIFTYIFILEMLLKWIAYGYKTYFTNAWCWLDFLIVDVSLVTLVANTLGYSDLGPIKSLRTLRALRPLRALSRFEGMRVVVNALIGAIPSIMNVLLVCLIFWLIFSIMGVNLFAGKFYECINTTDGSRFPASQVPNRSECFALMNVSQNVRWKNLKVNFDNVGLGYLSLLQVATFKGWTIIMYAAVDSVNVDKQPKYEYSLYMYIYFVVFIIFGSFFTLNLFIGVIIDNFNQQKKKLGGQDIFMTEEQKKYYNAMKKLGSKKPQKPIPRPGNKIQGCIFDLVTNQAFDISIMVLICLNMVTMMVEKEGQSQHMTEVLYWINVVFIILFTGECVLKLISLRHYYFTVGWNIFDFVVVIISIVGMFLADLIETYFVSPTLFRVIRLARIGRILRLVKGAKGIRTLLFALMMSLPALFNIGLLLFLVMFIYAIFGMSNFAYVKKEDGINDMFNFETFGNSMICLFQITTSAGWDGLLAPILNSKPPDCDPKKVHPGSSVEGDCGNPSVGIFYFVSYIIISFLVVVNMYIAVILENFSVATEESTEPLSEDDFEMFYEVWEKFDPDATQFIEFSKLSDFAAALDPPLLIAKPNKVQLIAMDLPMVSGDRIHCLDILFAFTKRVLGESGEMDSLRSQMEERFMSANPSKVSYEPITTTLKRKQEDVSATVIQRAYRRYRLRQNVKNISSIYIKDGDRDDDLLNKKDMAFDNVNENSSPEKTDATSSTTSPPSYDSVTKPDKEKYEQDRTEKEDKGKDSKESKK
SMILES,IC50 [1] [nM],IC50 [2] [nM]
"CCOc1ccc(-c2cncc(C(=O)NNCc3cccc(OC)c3)n2)cn1 [Compound 30, 6-(6-ethoxypyridin-3-yl)-N′-(3-methoxybenzyl)pyrazine-2-carbohydrazide]",> 1000,< 500
"CCOc1ccc(-c2cncc(C(=O)NNCc3cc(OC)cc(OC)c3)n2)cn1 [Compound 29, N′-(3,5-dimethoxybenzyl)-6-(6-ethoxypyridin-3-yl)pyrazine-2-carbohydrazide]",> 1000,500 to 1000
"O=C(NNCc1ccc(Cl)cc1)c1cncc(-c2ccc(OC3CC3)cc2)n1 [Compound 4, N′-(4-chlorobenzyl)-6-(4-cyclopropoxyphenyl)pyrazine-2-carbohydrazide]",> 1000,> 1000
"CCOc1ccc(-c2cncc(C(=O)NNCc3cc(OC)cnc3F)n2)cc1 [Compound 26, 6-(4-ethoxyphenyl)-N′-((2-fluoro-5-methoxypyridin-3-yl)methyl)pyrazine-2-carbohydrazide]",> 1000,500 to 1000
"CCOc1ccc(-c2cncc(C(=O)NN[C@H](C)c3cc(OC)cc(OC)c3)n2)cc1 (single isomer, unassigned) [Compound 25]",> 1000,500 to 1000
"CCOc1ccc(-c2cncc(C(=O)NN3CCCc4ccc(OC)cc4C3)n2)cc1 [Compound 11, 6-(4-ethoxyphenyl)-N-(8-methoxy-1,3,4,5-tetrahydro-2H-benzo[c]azepin-2-yl)pyrazine-2-carboxamide]",> 1000,> 1000
"CCOc1ccc(-c2cncc(C(=O)NNCc3cc(OC)cnc3C)n2)cc1 [Compound 18, 6-(4-ethoxyphenyl)-N′-((5-methoxy-2-methylpyridin-3-yl)methyl)pyrazine-2-carbohydrazide]",> 1000,< 500
"COc1cc(CNNC(=O)c2cncc(-c3ccc(OC(C)C)cc3)n2)cc(OC)c1 [Compound 3, N′-(3,5-dimethoxybenzyl)-6-(4-isopropoxyphenyl)pyrazine-2-carbohydrazide]",> 1000,< 500
